In PubChem BioAssay (NCI):
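Protocol summary: plate cells (96-well), add compound at 5 concentrations, incubate 48 h, interpolate endpoints linearly. GI50: concentration for 50% inhibition of growth. Definition used: TGI = concentration required for complete inhibition of growth.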

How the values were obtained:
Experiment in all cases: inhibition of tumour cell growth, NCI panel, 48 h
K-562 leukemia = tested on: K-562 leukemia
NCI/ADR-RES ovarian = tested on: NCI/ADR-RES ovarian
HOP-62 NSCLC = tested on: HOP-62 NSCLC
SN12C renal = tested on: SN12C renal
HL-60(TB) leukemia = tested on: HL-60(TB) leukemia
RXF 393 renal = tested on: RXF 393 renal
SNB-75 CNS = tested on: SNB-75 CNS
A549 NSCLC = tested on: A549 NSCLC
SK-OV-3 ovarian = tested on: SK-OV-3 ovarian
OVCAR-4 ovarian = tested on: OVCAR-4 ovarian
HS 578T breast = tested on: HS 578T breast
SNB-19 CNS = tested on: SNB-19 CNS
786-0 renal = tested on: 786-0 renal
NCI-H460 lung = tested on: NCI-H460 lung
SF-295 CNS = tested on: SF-295 CNS
DU-145 prostate = tested on: DU-145 prostate
EKVX NSCLC = tested on: EKVX NSCLC
OVCAR-3 ovarian = tested on: OVCAR-3 ovarian
T-47D breast = tested on: T-47D breast
CAKI-1 renal = tested on: CAKI-1 renal
SK-MEL-5 melanoma = tested on: SK-MEL-5 melanoma
LOX IMVI melanoma = tested on: LOX IMVI melanoma
SK-MEL-2 melanoma = tested on: SK-MEL-2 melanoma
SR leukemia = tested on: SR leukemia
HCC-2998 colon = tested on: HCC-2998 colon
SW-620 colon = tested on: SW-620 colon
MDA-MB-231 breast = tested on: MDA-MB-231 breast
SF-539 CNS = tested on: SF-539 CNS
MOLT-4 leukemia = tested on: MOLT-4 leukemia

COC(=O)N1c2ccc3c(nc(Cc4ccccc4)n3[C@H]3CCC[C@H](C(=O)O)C3)c2CC[C@@H]1C
GI50 (K-562 leukemia): 5.03 µM | TGI (K-562 leukemia): > 100 µM | GI50 (NCI/ADR-RES ovarian): 65.2 µM | TGI (NCI/ADR-RES ovarian): > 100 µM | GI50 (HOP-62 NSCLC): 11.3 µM | TGI (HOP-62 NSCLC): > 100 µM | GI50 (SN12C renal): 17.3 µM | TGI (SN12C renal): > 100 µM | GI50 (HL-60(TB) leukemia): 3.18 µM | TGI (HL-60(TB) leukemia): > 100 µM | GI50 (RXF 393 renal): 12.2 µM | TGI (RXF 393 renal): 91.1 µM | GI50 (SNB-75 CNS): 0.431 µM | TGI (SNB-75 CNS): > 100 µM | GI50 (A549 NSCLC): 27.6 µM | TGI (A549 NSCLC): > 100 µM | GI50 (SK-OV-3 ovarian): 16.9 µM | TGI (SK-OV-3 ovarian): > 100 µM | GI50 (OVCAR-4 ovarian): 6.84 µM | TGI (OVCAR-4 ovarian): > 100 µM | GI50 (HS 578T breast): 3.25 µM | TGI (HS 578T breast): > 100 µM | GI50 (SNB-19 CNS): 12.6 µM | TGI (SNB-19 CNS): > 100 µM | GI50 (786-0 renal): 5.67 µM | TGI (786-0 renal): > 100 µM | GI50 (NCI-H460 lung): 23.4 µM | TGI (NCI-H460 lung): > 100 µM | GI50 (SF-295 CNS): 11.7 µM | TGI (SF-295 CNS): > 100 µM | GI50 (DU-145 prostate): 93.6 µM | TGI (DU-145 prostate): > 100 µM | GI50 (EKVX NSCLC): 17.9 µM | TGI (EKVX NSCLC): > 100 µM | GI50 (OVCAR-3 ovarian): 13.3 µM | TGI (OVCAR-3 ovarian): > 100 µM | GI50 (T-47D breast): 3.17 µM | TGI (T-47D breast): > 100 µM | GI50 (CAKI-1 renal): 1.81 µM | TGI (CAKI-1 renal): > 100 µM | GI50 (SK-MEL-5 melanoma): 10.2 µM | TGI (SK-MEL-5 melanoma): > 100 µM | GI50 (LOX IMVI melanoma): 1.03 µM | TGI (LOX IMVI melanoma): 30.2 µM | GI50 (SK-MEL-2 melanoma): 34.3 µM | TGI (SK-MEL-2 melanoma): > 100 µM | GI50 (SR leukemia): 13.8 µM | TGI (SR leukemia): > 100 µM | GI50 (HCC-2998 colon): 8.36 µM | TGI (HCC-2998 colon): 27.1 µM | GI50 (SW-620 colon): 46.4 µM | TGI (SW-620 colon): > 100 µM | GI50 (MDA-MB-231 breast): 15.8 µM | TGI (MDA-MB-231 breast): > 100 µM | GI50 (SF-539 CNS): 15.7 µM | TGI (SF-539 CNS): > 100 µM | GI50 (MOLT-4 leukemia): 14.3 µM
